# T1: UCK1 (Homo sapiens, UniProt Q9HA47)
# T1 construct: amino acids 21–235, N-terminal His tag
# T1 sequence (Q9HA47 21-235): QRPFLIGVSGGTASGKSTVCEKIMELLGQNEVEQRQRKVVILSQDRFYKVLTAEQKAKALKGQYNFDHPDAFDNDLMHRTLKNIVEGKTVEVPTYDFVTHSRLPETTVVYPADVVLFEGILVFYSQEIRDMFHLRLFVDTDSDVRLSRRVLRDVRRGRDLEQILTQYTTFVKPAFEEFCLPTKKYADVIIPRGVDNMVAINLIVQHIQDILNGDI
# T2: UCK2 (Homo sapiens, UniProt Q9BZX2)
# T2 construct: recombinant, C-terminal His tag
# T2 sequence (Q9BZX2 2-261): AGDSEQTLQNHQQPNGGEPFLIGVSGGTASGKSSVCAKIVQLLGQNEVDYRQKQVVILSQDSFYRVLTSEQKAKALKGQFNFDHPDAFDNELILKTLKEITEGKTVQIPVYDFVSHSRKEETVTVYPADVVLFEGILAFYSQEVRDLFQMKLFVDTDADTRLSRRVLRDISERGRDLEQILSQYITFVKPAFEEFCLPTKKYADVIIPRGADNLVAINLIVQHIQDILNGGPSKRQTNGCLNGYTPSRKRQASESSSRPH
# T3: UCK1 (Homo sapiens, UniProt Q9HA47)
# T3 construct: recombinant, N-terminal His tag
# T3 sequence (Q9HA47 1-277): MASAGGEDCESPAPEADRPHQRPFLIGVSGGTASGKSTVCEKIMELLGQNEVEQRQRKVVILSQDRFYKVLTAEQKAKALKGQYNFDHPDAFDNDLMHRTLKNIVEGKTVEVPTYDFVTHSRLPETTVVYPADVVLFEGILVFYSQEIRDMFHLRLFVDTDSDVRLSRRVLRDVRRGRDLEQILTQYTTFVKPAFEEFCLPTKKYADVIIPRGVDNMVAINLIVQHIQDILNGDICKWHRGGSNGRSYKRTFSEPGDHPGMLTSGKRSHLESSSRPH
# B1: UCK2 (Homo sapiens) (protein)
# chain: T2 sequence (Q9BZX2 2-261)
# notes: recombinant, C-terminal His tag
# B2: human UCK1 construct (amino acids 21–235) (enzyme, UniProt Q9HA47 21-235, looked up)
# chain: T1 sequence (Q9HA47 21-235)
# notes: uridine cytidine kinase 1 (UCK1), human, residues 21-235; cDNA optimized for expression in E. coli, in pET24a(+); Tetramer by gel filtration and in the crystal's asymmetric unit; also called hUCK1; uridine cytidine kinase 1; source: E. coli BL21 (DE3), purified (IMAC, SEC)
# Experiments:
# UCK1 [1] = target: T1, UCK1; assay: X-ray co-crystal structure ([…] Å, with NHC); format: binding
# UCK2 = target: T2, UCK2; assay: ADP-Glo-coupled kinase kinetics (kcat/Km); DSF dose-response; format: biochemical
# UCK1 [2] = target: T3, UCK1; assay: ADP-Glo-coupled kinase kinetics; DSF dose-response; format: biochemical
# [3] = substrate: O=c1nc(NO)ccn1[C@@H]1O[C@H](CO)[C@@H](O)[C@H]1O; assay: ADP-Glo-coupled kinase kinetics (Km); DSF dose-response; format: biochemical, Homo sapiens; conditions: ATP, Mg2+
# Excerpt: ADP-Glo-coupled kinase kinetics (Km); DSF dose-response on UCK2 | NHC was a substrate for both UCK1 and UCK2
# purified protein = substrate: O=c1nc(NO)ccn1[C@@H]1O[C@H](CO)[C@@H](O)[C@H]1O; assay: purified protein; format: binding, Homo sapiens; conditions: AMPPNP (ATP site) and Mg2+ active site; π-stacking with F86 and F117; H-bonds with D65, D87, Y115, H120, R160 and the ATP gamma-phosphate
# [4] = target: the molecule itself; assay: SEC; gel filtration of purified recombinant UCK1 (amino acids 21–235) on a Superdex200 increase 10/300 GL column; single peak
molecule,measurement,setting,value
"Nc1ncnc2c1ncn2[C@@H]1O[C@H](CO[P@](=O)(O)O[P@](=O)(O)NP(=O)(O)O)[C@@H](O)[C@H]1O [AMPPNP, adenosine 5’-(β,γ-imido)triphosphate]","X-ray co-crystal structure (2.40 Å, with NHC)",UCK1 [1],"AMPPNP binds in a pocket closer to the surface, and is positioned by H-bonds between the phosphate group and residues"
"Nc1ccn([C@@H]2O[C@H](CO)[C@@H](O)[C@H]2O)c(=O)n1 [C, cytidine]",ADP-Glo-coupled kinase kinetics (kcat/Km); DSF dose-response,UCK2,56666.7 M⁻¹ s⁻¹
same,ADP-Glo-coupled kinase kinetics; DSF dose-response,UCK1 [2],"Using cytidine as the substrate, the ADP-Glo-coupled kinase activity assay produced kinetic parameters"
B1,Km,[3],260 ± 70 µM
B2,Km,purified protein,1140 ± 320 µM
same,stoichiometry N,[4],4
